Laboratory results reported in ChEMBL document CHEMBL1152107 (Bioorg Med Chem Lett, 1997).

Experiments:
HCT-116 [1] = test: The compound was evaluated in vitro for inhibition of human colon cancer cell line HCT116; assay type: functional, cell-based
HCT-116 [2] = test: The compound was evaluated for the cytotoxicity against human colon cancer cell lines(HCT116), activity expressed as IC50 vs IC50 of Paclitaxel.; assay type: functional
[3] = molecular target: Tubulin alpha chain (Sus scrofa) (UniProt P02550); test: The compound was evaluated in vitro in a tubulin polymerization assay, activity expressed as potency of compound relative to Paclitaxel.; assay type: functional
Sequence of Tubulin alpha chain (Sus scrofa) (P02550 whole entry, looked up): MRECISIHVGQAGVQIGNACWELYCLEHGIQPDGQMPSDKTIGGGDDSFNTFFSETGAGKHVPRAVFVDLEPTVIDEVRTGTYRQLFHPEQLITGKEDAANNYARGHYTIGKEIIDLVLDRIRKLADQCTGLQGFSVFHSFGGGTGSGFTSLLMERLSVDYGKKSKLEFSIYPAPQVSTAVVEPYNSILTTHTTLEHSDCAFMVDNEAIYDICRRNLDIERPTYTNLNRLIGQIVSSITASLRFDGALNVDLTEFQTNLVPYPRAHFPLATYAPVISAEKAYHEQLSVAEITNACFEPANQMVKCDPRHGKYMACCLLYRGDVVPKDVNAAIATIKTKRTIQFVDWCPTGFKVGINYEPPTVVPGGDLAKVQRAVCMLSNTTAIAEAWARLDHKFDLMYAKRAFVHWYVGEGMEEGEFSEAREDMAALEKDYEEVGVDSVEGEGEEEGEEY

M109 = test: The compound was evaluated in vivo for the T/C ratio against M-109 lung carcinoma.; assay type: functional, Mus musculus

SMILES: CC(=O)O[C@H]1C(=O)[C@@]2(C)[C@H]([C@H](OC(=O)c3ccccc3)[C@]3(O)C[C@H](OC(=O)[C@H](O)[C@@H](O)c4ccccc4)C(C)=C1C3(C)C)[C@]1(OC(C)=O)CO[C@@H]1C[C@@H]2O
- IC50 (HCT-116 [1]): > 200 nM
- Ratio (HCT-116 [2]): >100
- Ratio [3]: > 100

SMILES: CC(=O)O[C@H]1C(=O)[C@@]2(C)[C@H]([C@H](OC(=O)c3ccccc3)[C@]3(O)C[C@H](OC(=O)[C@H](O)[C@@H](OC(=O)NC(C)(C)C)c4ccccc4)C(C)=C1C3(C)C)[C@]1(OC(C)=O)CO[C@@H]1C[C@@H]2O
- IC50 (HCT-116 [1]): 6.6 nM
- T/C (M109): 166%
- Ratio (HCT-116 [2]): 3.3
- Ratio [3]: 1.5

SMILES: CC(=O)O[C@H]1C(=O)[C@@]2(C)[C@H]([C@H](OC(=O)c3ccccc3)[C@]3(O)C[C@H](OC(=O)[C@H](O)[C@@H](NC(=O)c4ccccc4)c4ccccc4)C(C)=C1C3(C)C)[C@]1(OC(C)=O)CO[C@@H]1C[C@@H]2O [PACLITAXEL]
- T/C (M109): 166%
- Ratio (HCT-116 [2]): 1

SMILES: CC(=O)O[C@@]12CO[C@@H]1C[C@H](O)[C@@]1(C)C(=O)[C@H](O)C3=C(C)[C@@H](OC(=O)[C@H](O)[C@@H](OC(=O)NC(C)(C)C)c4ccccc4)C[C@@](O)([C@@H](OC(=O)c4ccccc4)C12)C3(C)C (some centres not stated)
- IC50 (HCT-116 [1]): 10.3 nM
- Ratio (HCT-116 [2]): 5.1
- Ratio [3]: 7.8
